We go through five compounds from article PMC7758436 (Frontiers in Veterinary Science, 2020).

Data set [1] concerns promastigote forms of L. (L.) amazonensis. The data set can be described thus: In vitro leishmanicidal activity, growth inhibition of promastigote forms (counting in Neubauer's chamber). Format: cell-based, Leishmania (Leishmania) amazonensis. Particulars: value (95% CI). Here is the method:
(§1) L. (L.) amazonensis (IFLA/BR/67/PH8.) was maintained as promastigote forms in Roswell Park Memorial Institute medium (RPMI 1640 medium) (Gibco, Grand Island, NY, USA), supplemented with antibiotics (penicillin 10.000 UI/mL and streptomycin […]) (Cultilab, Campinas, BR), and 10% bovine fetal serum (FBS) (Cultilab), at 25°C. L. (L.) infantum (MHOM/BR/1972/LD) was maintained as promastigote forms in M199 medium (Gibco), supplemented with 10% FBS (Cultilab), antibiotics (Cultilab), 5% human urine and 0.25% hemin (Sigma-Aldrich) at 25°C, and amastigote forms were obtained from the spleen of golden hamsters after 60 to 70 days of infection ([21]). Peritoneal murine macrophages were obtained by washing the peritoneal cavity of BALB/c mice with RPMI 1640 medium (Gibco) after 72 h of the application of 5 mL of the sodium thioglycolate (Sigma-Aldrich) at 3%, and then were cultivated in RPMI 1640 medium (Gibco) supplemented with antibiotics and 10% FBS (Gibco), at 37°C in a 5% CO2 humidified incubator.
Initially, a screening was performed against promastigote forms of L. (L.) amanzonensis. […] […], and the leishmanicidal activity was determined by the inhibition of growth of the promastigote forms by counting the total number of live promastigote in Neubauer's chamber (Global Glass, São Paulo, BR) using an optical microscope (Nikon New York, USA). […] To evaluate the leishmanicidal activity against amastigote forms, peritoneal murine macrophages were seemed (2 × 10^5 cells per well) in 24-well plates on slide chambers and incubated at 37°C for 24 h. […] The slides were stained with Giemsa (Synth, Diadema, BR), analyzed using an optical microscopy (Nikon), and the parasite load was defined by the number of infected macrophages X number of intracellular amastigotes/number of total macrophages ([23]). Parasites cultured in medium with 0.1% were used as negative control and parasites cultured in medium with MA or AmpB were used as positive controls.

Data set [2] in a line: In vitro hemolytic activity. Particulars: sheep. The class given is cell-based, sheep. On the procedure:
(§2) Defibrinated sheep blood (Newprov, Pinhais, PR, BR) was diluted in 0.9% saline solution and a suspension at 3% of erythrocytes was transferred (100 μL) in 96-well plates. […] The hemolytic activity was determined in the cell supernatant by optical density reading at 415 nm (Libra S12–Biochrom–Cambridge, RU) Distilled water was used as a positive control, and 0.9% saline solution with 0.1% DMSO was used as negative control.

Data set [3] has as its system amastigote forms of L. (L.) amazonensis. The data set can be described thus: In vitro leishmanicidal activity against intracellular amastigote forms in peritoneal murine macrophages (Giemsa, parasite load). Format: cell-based. Particulars: Leishmania amazonensis, Macrophage, 48 h, value (95% CI). Here is the method:
as §1
(§3) Initially, a screening was performed against promastigote forms of L. (L.) amanzonensis. […] The slides were stained with Giemsa (Synth, Diadema, BR), analyzed using an optical microscopy (Nikon), and the parasite load was defined by the number of infected macrophages X number of intracellular amastigotes/number of total macrophages ([23]). […]

Data set [4] in a line: In vitro cytotoxic activity, MTT assay. Format: cell-based, BALB/c mice. Particulars: BALB/c, mouse, 48 h, MTT, value (95% CI). Here is the method: as §1
(§4) The cells were incubated at 37°C in a 5% CO2 humidified incubator at 37°C during 48 h, and the cytotoxic activity was determined using MTT assay ([23]). Cells cultured in medium with 0.1% DMSO were used as negative control and cells cultured in medium with 25% DMSO were used as positive control.
A general note: Formazan colour is commonly taken as a measure of viable cells.

The subject of the next data set is HFF cell. The settings on record: ref [32]; cited from earlier work.
A further data set has as its system amastigotes. Particulars: 2.5 μM, 72 h of incubation; ref [10], [11]; cited from earlier work.
Data set [5] deals with Peritoneal murine macrophages. The data set can be described thus: In vitro cytotoxic activity, MTT assay. Format: cell-based, BALB/c mice. On the procedure:
as §1, §4

On the set-up of data set [6]: method as in PMID 29698432. Particulars: ref [38]; cited from earlier work.
A further data set has as its system L. (L.) infantum. As to the kind of experiment: In vivo leishmanicidal activity in L. (L.) infantum-infected hamsters (limiting dilution). Further details: species or system golden hamsters (Mesocricetus auratus). Particulars: for reduction of parasite burden in liver / reduction of parasite burden in spleen: intraperitoneal, eight consecutive days, vs negative control group; for survival rate / average body weight: infected hamsters; for survival rate: after the treatment (data not shown); for average body weight: among negative, LicoA and MA groups. On the procedure:
Male golden hamsters were infected by intraperitoneal route with 1.0 × 10^8 L. (L.) infantum amastigotes. Four weeks after infection, the animals were randomly separated in 4 groups of 6 animals each. […] Negative control group received the same number of injections of phosphate buffered saline (PBS) and animals from positive control group was treated with MA (Sanofi-Aventis) at dose 50 mg/kg of body weight during eight consecutive days by intraperitoneal route. Thirty five days after treatment the animals were sacrificed and the parasite burden was evaluated both in spleen and liver by limiting dilution method ([24]).

In data set [7] the test system is Defibrinated sheep blood erythrocytes. As to the kind of experiment: In vitro hemolytic activity. The class given is cell-based. Particulars: 400 μM; 30 min at 37°C. On the procedure: as §2
Data set [8] deals with promastigote forms of L. (L.) infantum. The data set can be described thus: In vitro leishmanicidal activity, growth inhibition of promastigote forms (counting in Neubauer's chamber). The class given is cell-based, Leishmania (Leishmania) infantum. Here is the method: as §1
Initially, a screening was performed against promastigote forms of L. (L.) amanzonensis. […] The plates were incubated at same conditions previously described during 48 h, and the leishmanicidal activity was determined by the inhibition of growth of the promastigote forms by counting the total number of live promastigote in Neubauer's chamber (Global Glass, São Paulo, BR) using an optical microscope (Nikon New York, USA). […] To evaluate the leishmanicidal activity against amastigote forms, peritoneal murine macrophages were seemed (2 × 10^5 cells per well) in 24-well plates on slide chambers and incubated at 37°C for 24 h. […] The slides were stained with Giemsa (Synth, Diadema, BR), analyzed using an optical microscopy (Nikon), and the parasite load was defined by the number of infected macrophages X number of intracellular amastigotes/number of total macrophages ([23]). Parasites cultured in medium with 0.1% were used as negative control and parasites cultured in medium with MA or AmpB were used as positive controls.

For another data set, the system named is L. (L.) major. Particulars: 2.5 and 5 mg/kg of body weight, intraperitoneal, 7 days after infection during 39 days; ref [11]; cited from earlier work.
The subject of data set [9] is amastigote forms of L. (L.) infantum. The data set can be described thus: In vitro leishmanicidal activity against intracellular amastigote forms in peritoneal murine macrophages (Giemsa, parasite load). Particulars: 48 h, read-out: IC50 L (L.) infantum Amastigote 48 h. The class given is cell-based, Leishmania (Leishmania) infantum. On the procedure: as §1, §3
The conditions of data set [10]: ref [11], cited from earlier work.
Another data set deals with L. (L.) donovani. Particulars: 20 mg/kg of body weight per day, intraperitoneal, six consecutive days; vs untreated control; ref [11]; cited from earlier work.
The next data set relates to erythrocytes. Particulars: after 24 h; ref [33]; cited from earlier work.
Data set [11] is described as follows: Hepatotoxicity in no-infected hamsters, serum ALT and AST. Format: in vivo, golden hamsters (Mesocricetus auratus). The settings on record: for serum levels of aminotransaminases (ALT, AST): no-infected hamsters, 15 days, vs negative control group. On the procedure:
After this period, serum concentrations of alanine aminotransferase (ALT) and aspartate aminotransferase (AST) were determined using sets of commercial reagents (Labtest, Minas Gerais, Brazil). Negative control group received the same number of injections of PBS.

The mark [12] stands for this setting: Leishmania amazonensis, 24 h, read-out: IC50 L (L.) amazonensis Promastigote 24 h.
Where [13] appears, read: Leishmania amazonensis, 48 h, read-out: IC50 L (L.) amazonensis Promastigote 48 h.
Setting [14] is: 48 h, MTT, value (95% CI), read-out: CC50 Peritoneal murine macrophages 48 h.
Setting [15] is: 20 mg/kg of body weight per day.
[16] abbreviates: 50 mg/kg of body weight per day.
Setting [17] is: 50 mg/kg of body weight per day intraperitoneally.

Like-named read-outs stand apart in the source and are kept apart here.

What is called IC50 is the concentration that inhibits the measured activity by half. As to `C[C@@H]1[C@H](O)[C@@H](C)/C=C/C=C/C=C/C=C/C=C/C=C/C=C/[C@H](O[C@@H]2O[C@H](C)[C@@H](O)[C@H](N)[C@@H]2O)C[C@@H]2O[C@](O)(C[C@@H](O)C[C@@H](O)[C@H](O)CC[C@@H](O)C[C@@H](O)CC(=O)O[C@H]1C)C[C@H](O)[C@H]2C(=O)O` [AmpB, amphotericin B, reference compound], the IC50 in data set [1] (setting [12]) worked out at 0.27 µM; in [1] (setting [13]) it was 0.065 µM; in data set [3], 0.022 µM. Besides, the hemolysis at 30 min, 100 µM in [2] came to 60%. The compound also returned a hemolysis at 30 min, 200 µM in data set [2] of 100%.

A word on the CC50: it is the concentration giving 50% cytotoxicity. In the case of `COc1ccc(C(=O)/C=C/c2ccc(OCC=C(C)C)c(OC)c2)cc1` [LLA1 (1a), (E)-3-(3-methoxy-4-((3-methylbut-2-en-1-yl)oxy)phenyl)-1-(4-methoxyphenyl)prop-2-en-1-one], the CC50 at 48 h in data set [4] (peritoneal murine macrophages) is above 400 µM. In addition, the results for the IC50 in data set [1] (setting [12]) and in [1] (setting [13]) were 74.9 µM and 67.2 µM, respectively.

As to `C=CC(C)(C)c1cc(/C=C/C(=O)c2ccc(O)cc2)c(OC)cc1O` [LicoA (1), Licochalcone A], in the data set with HFF cell, the “toxicity in HFF cell in vitro” value is recorded as “low-toxicity”. The “effect on number of amastigotes” value in the data set on amastigotes is on record as “reduction in the number of amastigotes”. For the same compound, the CC50 in data set [5] (setting [14]) came to 123 µM. Further, the CC50 at 48 h in data set [4] (read-out: CC50 Peritoneal murine macrophages 48 h) is 123 µM. Also, the IC50 in data set [1] (setting [12]) was determined as 20.3 µM; in [1] (setting [13]), 3.88 µM; in [8] (Leishmania infantum, 24 h, read-out: IC50 L (L.) infantum Promastigote 24 h) it was 41.1 µM; in [8] (Leishmania infantum, 48 h, read-out: IC50 L (L.) infantum Promastigote 48 h) it was 12.5 µM; in data set [9] (Leishmania infantum, Macrophage) it was 29.6 µM; in [3], 36.8 µM. Further, the “effect against Acetaminophen overdose-induced hepatotoxicity” value in data set [6] was “protective effect”. Further, the “reduction of parasite burden in liver” value with L. (L.) infantum (setting [15]) is 15.27%; in the data set on L. (L.) infantum (setting [16]), 43.67%. Moreover, the “reduction of parasite burden in spleen” value with L. (L.) infantum (setting [15]) was determined as 20.69%; with L. (L.) infantum (setting [16]), 39.81%. Also, in the data set with L. (L.) infantum, the survival rate stood at 100%. Also, in the data set on L. (L.) infantum, the average body weight entry is “no significant variation”. The hemolytic activity entry in data set [7] was “about 30%”. Also, the lesion development result with L. (L.) major was “completely prevented lesion development”. The “toxicity, intraperitoneal” value in [10] (100 mg/kg in rats and 150 mg/kg in hamsters, intraperitoneal) is “did not show any toxicity”. Also, in data set [10] (doses higher than 1,000 mg/kg, orally once a day for 2 weeks), the “signs of toxicity, oral” value was “did not cause any signs of toxicity”. Further, the “reduction of parasite load in the liver and the spleen” value in the data set with L. (L.) donovani is above 96%. In addition, the “concentration inducing hemolysis (cell shrinkage and phospholipid scrambling of the cell membrane)” value in the data set with erythrocytes is listed as “higher than 30 μM”. For the same compound, the hepatotoxicity result in data set [11] (LicoA-treated vs non-treated groups, serum aminotransaminases) was “No evidence of hepatotoxicity”. For the same compound, the “serum levels of aminotransaminases (ALT, AST)” value in data set [11] (20 mg/kg of body weight per day intraperitoneally) and in data set [11] (setting [17]) was “no significant alterations” each time.

“(E)-3-(4-hydroxy-3-methoxyphenyl)-1-(4-hydroxyphenyl)prop-2-en-1-one [LLA2 (2a)]” yielded a CC50 in data set [5] above 400 µM. The IC50 in data set [1] (24 h, read-out: IC50 L (L.) amazonensis Promastigote 24 h) worked out at 301 µM; in [1] (48 h, read-out: IC50 L (L.) amazonensis Promastigote 48 h), 287 µM.

Take “meglumine antimoniate [MA, reference compound]”: the “cytotoxicity at concentrations evaluated” value in data set [5] (12.5–400 μM, 48 h) is recorded as “no cytotoxicity”. In addition, the CC50 in data set [5] (setting [14]) was above 400 µM. Also, in the data set with L. (L.) infantum (setting [16]), the “reduction of parasite burden in liver” value was determined as 55.87% and the “reduction of parasite burden in spleen” value worked out at 63.57%. Moreover, in the data set with L. (L.) infantum, the survival rate is listed as 100% and the average body weight entry is “no significant variation”. Besides, in data set [8] (24 h, value (95% CI), read-out: IC50 L (L.) infantum Promastigote 24 h), the IC50 was above 400 µM. Further, the IC50 in data set [8] (48 h, value (95% CI), read-out: IC50 L (L.) infantum Promastigote 48 h) was above 400 µM. Also, the IC50 in [9] (in peritoneal murine macrophages, value (95% CI)) is above 400 µM. In addition, the “serum levels of aminotransaminases (ALT, AST)” value in [11] (setting [17]) is given as “significant increase”.
